Source: patent publication US20240261417A1, “SOS1 DEGRADING AGENT AND PREPARATION METHOD THEREFOR AND APPLICATION THEREOF” (SHANGHAI LEADINGTAC PHARMACEUTICAL CO. LTD., priority 2021, published 2024)

Experiments:
KRAS-G12C/SOS1 = target: T1, KRAS-G12C/SOS1 (Homo sapiens, UniProt Q07889); assay: KRAS-G12C/SOS1 binding assay (HTRF); settings: inhibition of KRAS-G12C/SOS1 binding
T1 construct: purchased Cisbio 63ADKOOOCB16PEG
T1 sequence (Q07889 1-1333): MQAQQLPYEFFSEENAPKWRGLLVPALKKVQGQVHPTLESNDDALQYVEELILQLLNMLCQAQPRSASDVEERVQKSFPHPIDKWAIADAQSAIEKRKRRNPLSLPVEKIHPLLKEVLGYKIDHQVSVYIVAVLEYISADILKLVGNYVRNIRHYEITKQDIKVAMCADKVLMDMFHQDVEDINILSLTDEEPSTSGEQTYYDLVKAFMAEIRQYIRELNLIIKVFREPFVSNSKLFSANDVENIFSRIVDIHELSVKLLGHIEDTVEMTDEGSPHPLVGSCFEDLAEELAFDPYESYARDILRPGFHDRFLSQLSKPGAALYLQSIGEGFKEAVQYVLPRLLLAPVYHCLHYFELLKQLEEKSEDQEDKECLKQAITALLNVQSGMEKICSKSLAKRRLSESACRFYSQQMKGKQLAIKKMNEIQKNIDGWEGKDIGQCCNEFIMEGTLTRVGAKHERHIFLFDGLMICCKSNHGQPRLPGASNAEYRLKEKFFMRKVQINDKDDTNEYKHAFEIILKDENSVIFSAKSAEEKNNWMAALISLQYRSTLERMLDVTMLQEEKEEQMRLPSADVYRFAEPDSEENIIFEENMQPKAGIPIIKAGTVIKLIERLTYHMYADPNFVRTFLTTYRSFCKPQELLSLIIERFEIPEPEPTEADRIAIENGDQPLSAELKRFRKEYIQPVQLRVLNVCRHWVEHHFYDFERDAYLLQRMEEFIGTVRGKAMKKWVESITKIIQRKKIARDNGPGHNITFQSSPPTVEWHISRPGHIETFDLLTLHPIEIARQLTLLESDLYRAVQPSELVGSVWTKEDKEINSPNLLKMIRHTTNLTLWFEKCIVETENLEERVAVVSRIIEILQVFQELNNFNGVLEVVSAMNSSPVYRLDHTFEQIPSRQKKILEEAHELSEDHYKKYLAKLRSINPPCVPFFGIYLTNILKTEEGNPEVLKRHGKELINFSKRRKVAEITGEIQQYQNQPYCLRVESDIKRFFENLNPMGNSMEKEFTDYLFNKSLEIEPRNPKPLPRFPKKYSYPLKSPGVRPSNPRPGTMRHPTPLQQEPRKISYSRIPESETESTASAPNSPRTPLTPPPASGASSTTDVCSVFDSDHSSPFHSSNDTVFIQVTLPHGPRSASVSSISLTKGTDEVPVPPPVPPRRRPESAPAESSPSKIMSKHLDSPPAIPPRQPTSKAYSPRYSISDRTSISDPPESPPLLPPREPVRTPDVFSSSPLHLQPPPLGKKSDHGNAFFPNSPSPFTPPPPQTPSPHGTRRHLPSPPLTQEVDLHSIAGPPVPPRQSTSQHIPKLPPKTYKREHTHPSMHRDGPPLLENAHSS
Method in brief: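 HTRF competition assay with Tag1-SOS1 and Tag2-KRAS-G12C (10 μM GTP). Compounds at 10000 nM-0.04 nM final (0.5% DMSO), incubated 15 min at 25° C, then anti-tag Tb3+/XL665 antibodies added for 3 h on ice. The 665/620 nm ratio was compared with control and IC50 derived by nonlinear fit.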

SOS1 protein = target: T2, SOS1 protein (Homo sapiens, UniProt Q07889); assay: SOS1 degradation assay (Western blot), NCI-H358 cells; type: cell-based; design: The degradation of SOS1 by the compounds was investigated on KRAS G12C mutant human non-small cell lung cancer cells NCI-H358; host or cells: NCI-H358 (human cancer cell lines); settings: SOS1 degradation, NCI-H358 cells, 24 h, Western blot; for DC50: read-out: NCI-H358 (G12C) DC50; for Dmax: read-out: NCI-H358 (G12C) Dmax
T2 sequence (Q07889 1-1333): T1 sequence (Q07889 1-1333)
Method in brief: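 SOS1 degradation was assessed by densitometry of Western blots, relative to untreated controls, after 24 h compound exposure (0.03–3000 nM final, 37 °C, 5% CO2) of cells seeded at 5×10^5/well. Log concentration–response fitting gave DC50 and Dmax.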

IC50 (KRAS-G12C/SOS1) | DC50 (SOS1 protein) | Dmax (SOS1 protein) | Structure (SMILES)
≤ 15 nM | < 50 nM | 80 to 100% | COc1cc2nc(C)nc(N[C@H](C)c3cc(-c4c(Cl)cccc4CN(C)C)cs3)c2cc1[C@H]1CC[C@H](C(=O)N2CCN(CCCCC3CCN(C(=O)c4ccc(Cl)c(N5CCC(=O)NC5=O)c4)CC3)CC2)CC1 [Example 71, 1-(2-chloro-5-(4-(4-(4-((1R,4R)-4-(4-(((R)-1-(4-(2-chloro-6-((dimethylamino)methyl)phenyl)thien-2-yl)ethyl)amino)-7-methoxy-2-methylquinazolin-6-yl)cyclohexane-1-carbonyl)piperazin-1-yl)butyl)piperidine-1-carbonyl)phenyl)dihydropyrimidine-2,4(1H,3H)-dione]
≤ 15 nM | < 50 nM | 50 to 80% | COc1cc2nc(C)nc(N[C@H](C)c3cc(N)cc(C(F)(F)F)c3)c2cc1C1=CCC(C(=O)N2CCN(CCOCC3CCN(C(=O)c4ccc(Cl)c(N5CCC(=O)NC5=O)c4)CC3)CC2)CC1 (stereo partly drawn) [Example 53, 1-(5-(4-((2-(4-(4-(4-(((R)-1-(3-amino-5-(trifluoromethyl)phenyl)ethyl)amino)-7-methoxy-2-methylquinazolin-6-yl)cyclohex-3-ene-1-carbonyl)piperazin-1-yl)ethoxy)methyl)piperidine-1-carbonyl)-2-chlorophenyl)dihydropyrimidine-2,4(1H,3H)-dione]
≤ 15 nM | < 50 nM | 80 to 100% | COc1cc2nc(C)nc(N[C@H](C)c3cc(-c4c(Cl)cccc4CN(C)C)cs3)c2cc1[C@H]1CC[C@H](C(=O)N2CCC(COCCC3CCN(C(=O)c4ccc(Cl)c(N5CCC(=O)NC5=O)c4)CC3)CC2)CC1 [Example 70, 1-(2-chloro-5-(4-(2-((1-((1R,4R)-4-(4-(((R)-1-(4-(2-chloro-6-((dimethylamino)methyl)phenyl)thien-2-yl)ethyl)amino)-7-methoxy-2-methylquinazolin-6-yl)cyclohexane-1-carbonyl)piperidin-4-yl)methoxy)ethyl)piperidine-1-carbonyl)phenyl)dihydropyrimidine-2,4(1H,3H)-dione]
≤ 15 nM | < 50 nM | – | COc1cc2nc(C)nc(N[C@H](C)c3cc(-c4c(Cl)cccc4CN(C)C)cs3)c2cc1[C@H]1CC[C@H](C(=O)N2CCC(CCOCC3CCN(C(=O)c4ccc(C(F)(F)F)c(N5CCC(=O)NC5=O)c4)CC3)CC2)CC1 [Example 57, 1-(5-(4-((2-(1-((1R,4R)-4-(4-(((R)-1-(4-(2-chloro-6-((dimethylamino)methyl)phenyl)thien-2-yl)ethyl)amino)-7-methoxy-2-methylquinazolin-6-yl)cyclohexane-1-carbonyl)piperidin-4-yl)ethoxy)methyl)piperidine-1-carbonyl)-2-(trifluoromethyl)phenyl)dihydropyrimidine-2,4(1H,3H)-dione]
≤ 15 nM | < 50 nM | 80 to 100% | COc1cc2nc(C)nc(N[C@H](C)c3cc(-c4c(Cl)cccc4CN(C)C)cs3)c2cc1[C@H]1CC[C@H](C(=O)N2CCN(CCC3CCC4(CC3)CCN(C(=O)c3ccc(Cl)c(N5CCC(=O)NC5=O)c3)CC4)CC2)CC1 [Example 62, 1-(2-chloro-5-(9-(2-(4-((1R,4R)-4-(4-(((R)-1-(4-(2-chloro-6-((dimethylamino)methyl)phenyl)thien-2-yl)ethyl)amino)-7-methoxy-2-methylquinazolin-6-yl)cyclohexane-1-carbonyl)piperazin-1-yl)ethyl)-3-azaspiro[5.5]undecane-3-carbonyl)phenyl)dihydropyrimidine-2,4(1H,3H)-dione]
≤ 15 nM | 100 to 500 nM | 50 to 80% | COc1cc2nc(C)nc(N[C@H](C)c3cc(-c4c(Cl)cccc4CN(C)C)cs3)c2cc1[C@H]1CC[C@H](C(=O)N2CCN(CC3CCC4(CC3)CCN(C(=O)c3ccc(C5CCC(=O)NC5=O)cc3)CC4)CC2)CC1 (stereo partly drawn) [Example 52, 3-(4-(9-((4-((1R,4R)-4-(4-(((R)-1-(4-(2-chloro-6-((dimethylamino)methyl)phenyl)thien-2-yl)ethyl)amino)-7-methoxy-2-methylquinazolin-6-yl)cyclohexane-1-carbonyl)piperazin-1-yl)methyl)-3-azaspiro[5.5]undecane-3-carbonyl)phenyl)piperidine-2,6-dione]
≤ 15 nM | < 50 nM | 80 to 100% | COc1ccc(C(=O)N2CCC3(CCC(CN4CCN(C(=O)[C@H]5CC[C@H](c6cc7c(N[C@H](C)c8cc(-c9c(Cl)cccc9CN(C)C)cs8)nc(C)nc7cc6OC)CC5)CC4)CC3)CC2)cc1N1CCC(=O)NC1=O [Example 59, 1-(5-(9-((4-((1R,4R)-4-(4-(((R)-1-(4-(2-chloro-6-((dimethylamino)methyl)phenyl)thien-2-yl)ethyl)amino)-7-methoxy-2-methylquinazolin-6-yl)cyclohexane-1-carbonyl)piperazin-1-yl)methyl)-3-azaspiro[5.5]undecane-3-carbonyl)-2-methoxyphenyl)dihydropyrimidine-2,4(1H,3H)-dione]
≤ 15 nM | < 50 nM | 50 to 80% | [2H]C([2H])(OCC1CCN(C(=O)[C@H]2CC[C@H](c3cc4c(N[C@H](C)c5cc(N)cc(C(F)(F)F)c5)nc(C)nc4cc3OC)CC2)CC1)C1CCN(C(=O)c2ccc(Cl)c(N3CCC(=O)NC3=O)c2)CC1 [Example 75, 1-(5-(4-(((1-((1R,4R)-4-(4-(((R)-1-(3-amino-5-(trifluoromethyl)phenyl)ethyl)amino)-7-methoxy-2-methylquinazolin-6-yl)cyclohexane-1-carbonyl)piperidin-4-yl)methoxy)methyl-d2)piperidine-1-carbonyl)-2-chlorophenyl)dihydropyrimidine-2,4(1H,3H)-dione]
≤ 15 nM | < 50 nM | 50 to 80% | COc1cc2nc(C)nc(N[C@H](C)c3cc(-c4c(Cl)cccc4CN(C)C)cs3)c2cc1[C@H]1CC[C@H](C(=O)N2CCN(CCCOC3CCN(C(=O)c4ccc(Cl)c(N5CCC(=O)NC5=O)c4)CC3)CC2)CC1 [Example 68, 1-(2-chloro-5-(4-(3-(4-((1R,4R)-4-(4-(((R)-1-(4-(2-chloro-6-((dimethylamino)methyl)phenyl)thien-2-yl)ethyl)amino)-7-methoxy-2-methylquinazolin-6-yl)cyclohexane-1-carbonyl)piperazin-1-yl)propoxy)piperidine-1-carbonyl)phenyl)dihydropyrimidine-2,4(1H,3H)-dione]
≤ 15 nM | < 50 nM | 80 to 100% | COc1cc2nc(C)nc(N[C@H](C)c3cc(-c4c(Cl)cccc4CN(C)C)cs3)c2cc1[C@H]1CC[C@H](C(=O)N2CCC(CCCOC3CCN(C(=O)c4ccc(Cl)c(N5CCC(=O)NC5=O)c4)CC3)CC2)CC1 [Example 54, 1-(2-chloro-5-(4-(3-(1-((1R,4R)-4-(4-(((R)-1-(4-(2-chloro-6-((dimethylamino)methyl)phenyl)thien-2-yl)ethyl)amino)-7-methoxy-2-methylquinazolin-6-yl)cyclohexane-1-carbonyl)piperidin-4-yl)propoxy)piperidine-1-carbonyl)phenyl)dihydropyrimidine-2,4(1H,3H)-dione]
